Some test systems named below: SK-OV-3 ovarian; MOLT-4 leukemia; U251 CNS; CCRF-CEM leukemia; DU-145 prostate; PC-3 prostate; 786-0 renal; LOX IMVI melanoma.
Assay in all cases: NCI tumour cell line growth inhibition, 48 h

Each structure is given as a SMILES string.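 How tested: cells in 96-well plates exposed to compound for 48 hours at five concentrations. At the GI50, growth is halved. TGI: concentration producing complete growth inhibition.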

Regarding `Cc1[nH]c2ccc(F)cc2c1-c1nc2c3cccnc3c3ncccc3c2[nH]1`, the GI50 in the test with SK-OV-3 ovarian was 0.35 µM; in the test with MOLT-4 leukemia it was 0.298 µM; in the test on U251 CNS, 0.244 µM; in the test on CCRF-CEM leukemia, 0.193 µM; in the test with DU-145 prostate, 0.308 µM; in the test on PC-3 prostate it was 0.393 µM. Moreover, the GI50 in the test on 786-0 renal was 0.327 µM. Further, the TGI with SK-OV-3 ovarian, in the test on MOLT-4 leukemia, in the test on U251 CNS, in the test with CCRF-CEM leukemia, with DU-145 prostate and with PC-3 prostate was greater than 100 µM in each case. The compound further showed a TGI with 786-0 renal greater than 100 µM.
As for `OCCn1cnc2c(SCc3ccccc3)ncnc21`, the TGI in the test with SK-OV-3 ovarian, in the test on U251 CNS, in the test with LOX IMVI melanoma, in the test on CCRF-CEM leukemia, in the test on DU-145 prostate and with PC-3 prostate was greater than 100 µM each time. This compound also gave a TGI in the test on 786-0 renal greater than 100 µM.
Consider `CCOC(=O)C1CCCCN1C(=O)c1ccc(Nc2cnc3cc(C(F)(F)F)ccc3n2)cc1` (configuration not stated), for which the GI50 in the test on MOLT-4 leukemia is 3.93 µM; in the test on U251 CNS it was 11.3 µM; in the test on LOX IMVI melanoma, 3.62 µM; with DU-145 prostate it was 20.5 µM; in the test on PC-3 prostate, 11.5 µM; with 786-0 renal it was 4.82 µM. Further, the TGI with MOLT-4 leukemia is greater than 100 µM; in the test with U251 CNS it was 32.2 µM; with LOX IMVI melanoma, 16.4 µM; in the test with DU-145 prostate, 92.2 µM; with PC-3 prostate, 26.9 µM; in the test on 786-0 renal it was 16.4 µM.
Turning to `Cc1ccc(-c2csc(NC(=O)N3CCN(c4cc5c(cc4F)c(=O)c(C(=O)O)cn5C4CC4)CC3)n2)cc1`, the GI50 in the test with SK-OV-3 ovarian is 1.35 µM; with U251 CNS it was 0.392 µM; with LOX IMVI melanoma, 0.362 µM; in the test with CCRF-CEM leukemia it was 0.451 µM; with DU-145 prostate it was 0.428 µM; in the test on PC-3 prostate, 0.454 µM. Moreover, in the test on 786-0 renal, the GI50 is 0.471 µM. The TGI was 6.12 µM with SK-OV-3 ovarian; 14.8 µM with U251 CNS; greater than 100 µM in the test on LOX IMVI melanoma; greater than 100 µM with CCRF-CEM leukemia; greater than 100 µM with DU-145 prostate; greater than 100 µM with PC-3 prostate. Besides, the TGI in the test with 786-0 renal stood at 37.5 µM.
Take `COc1cnc2c(c1)C(=O)c1c-2n(CCCNC2=NCCS2)c(=O)c2cc(Cl)ccc12`: the GI50 with SK-OV-3 ovarian was 0.316 µM; in the test on MOLT-4 leukemia, 0.0454 µM; with U251 CNS it was 0.0546 µM; in the test on DU-145 prostate, 0.0929 µM; in the test with 786-0 renal, 0.239 µM. Besides, the TGI was found to be 1.64 µM in the test with SK-OV-3 ovarian; 1.71 µM in the test with MOLT-4 leukemia; 1.82 µM with U251 CNS; 1.83 µM in the test with DU-145 prostate; 1.72 µM in the test with 786-0 renal.
Consider `O=C(Nc1ccc(Oc2cccc(F)c2)c(Cl)c1)c1cnccn1`, for which the GI50 in the test on SK-OV-3 ovarian was 10.8 µM; in the test on MOLT-4 leukemia it was 1.85 µM; with U251 CNS, 1.51 µM; in the test with LOX IMVI melanoma, 1.69 µM; with CCRF-CEM leukemia it was 1.3 µM; in the test on DU-145 prostate it was 2 µM. Also, in the test on 786-0 renal, the GI50 is 3.03 µM. The TGI in the test with SK-OV-3 ovarian, with MOLT-4 leukemia, with U251 CNS, with LOX IMVI melanoma, in the test with CCRF-CEM leukemia and with DU-145 prostate was greater than 50 µM throughout. Moreover, the TGI in the test on 786-0 renal was greater than 50 µM.
For the compound `c1ccc2[nH]c(-c3cc(-c4ccc5c(c4)OCO5)n[nH]3)nc2c1`, the GI50 in the test with SK-OV-3 ovarian is 4.98 µM; with MOLT-4 leukemia, 2.68 µM; with U251 CNS, 2.37 µM; in the test with CCRF-CEM leukemia, 2.52 µM; in the test on DU-145 prostate, 7.27 µM; with PC-3 prostate, 3.64 µM. In addition, the GI50 in the test on 786-0 renal is 4.58 µM. For the same compound, the TGI worked out at 17.7 µM in the test with SK-OV-3 ovarian; 20.9 µM with MOLT-4 leukemia; 14.4 µM in the test with U251 CNS; 22.4 µM with CCRF-CEM leukemia; 22 µM with DU-145 prostate; 17.7 µM with PC-3 prostate. Further, the TGI in the test on 786-0 renal stood at 17.4 µM.
In the case of `[O-]c1ccccc1/C=N/C(/N=C/c1ccccc1[O-])c1ccccc1O.[O-]c1ccccc1/C=N/C(/N=C/c1ccccc1[O-])c1ccccc1O.[Zr+4]`, the GI50 with SK-OV-3 ovarian is 23.1 µM; in the test with MOLT-4 leukemia, 25.2 µM; in the test with U251 CNS, 36.7 µM; in the test with PC-3 prostate, 50.9 µM; in the test with 786-0 renal, 41.6 µM. For the same compound, the TGI with SK-OV-3 ovarian, in the test on MOLT-4 leukemia, with U251 CNS, in the test with PC-3 prostate and in the test with 786-0 renal was greater than 100 µM in each case.
As for `CN(C)C(=O)c1cnc2oc3ccc(O)cc3c2c1-c1ccccc1`, the GI50 in the test with SK-OV-3 ovarian was 24.6 µM; with MOLT-4 leukemia, greater than 25 µM; with U251 CNS, greater than 25 µM; with LOX IMVI melanoma, greater than 25 µM; in the test on DU-145 prostate it was greater than 25 µM; in the test on PC-3 prostate it was 16.6 µM. Also, the GI50 in the test with 786-0 renal was greater than 25 µM. In addition, the TGI in the test on SK-OV-3 ovarian, in the test on MOLT-4 leukemia, in the test on U251 CNS, with LOX IMVI melanoma, in the test on DU-145 prostate and in the test on PC-3 prostate was greater than 25 µM each time. Moreover, the TGI in the test on 786-0 renal was greater than 25 µM.
With `O=C1c2ccc3c4c(ccc(c24)C(=O)N1CCCNCc1ccccc1Cl)C(=O)N(CCCNCc1ccccc1Cl)C3=O`, the GI50 with SK-OV-3 ovarian is 0.862 µM; with MOLT-4 leukemia, 0.168 µM; in the test on U251 CNS it was 0.218 µM; in the test on CCRF-CEM leukemia it was 0.215 µM; with DU-145 prostate it was 0.261 µM; in the test on PC-3 prostate it was 0.268 µM. The GI50 in the test with 786-0 renal was 0.61 µM. Besides, the TGI with SK-OV-3 ovarian came out at 3.18 µM; in the test with MOLT-4 leukemia, 0.722 µM; in the test with U251 CNS it was 0.91 µM; in the test on CCRF-CEM leukemia, 50 µM; in the test with DU-145 prostate it was 0.86 µM; in the test on PC-3 prostate, 1.56 µM. Further, in the test with 786-0 renal, the TGI was 1.43 µM.
Consider `CC1=C(CCC(C)NCc2ccc(OCCCN3CCCCC3)cc2)C(C)(C)CCC1` (configuration not stated), for which the GI50 with SK-OV-3 ovarian is 2.06 µM; in the test with U251 CNS it was 1.57 µM; in the test with LOX IMVI melanoma, 1.44 µM; with CCRF-CEM leukemia, 1.54 µM; in the test with DU-145 prostate it was 1.85 µM; with PC-3 prostate, 1.54 µM. For the same compound, the GI50 in the test on 786-0 renal is 1.6 µM. Moreover, the TGI in the test with SK-OV-3 ovarian amounted to 3.76 µM; with U251 CNS, 3.28 µM; with LOX IMVI melanoma it was 2.85 µM; in the test on CCRF-CEM leukemia, 4.7 µM; in the test with DU-145 prostate, 4.17 µM; in the test on PC-3 prostate it was 3.42 µM. Also, the TGI in the test with 786-0 renal turned out to be 3.1 µM.

(Values after PubChem BioAssay (NCI).)
